According to patent US20260256145A1, “IRON AGENT FOR GROWING ANIMALS AND PLANTS, METHOD FOR PRODUCING THE SAME, AND IRON SUPPLY PREPARATION FOR GROWING ANIMALS AND PLANTS” (Sobue Clay Co., Ltd., priority 2023, published 2026):

Columns and labels:
[1] = system: molokheiya; experiment: Use Example 1: growth of molokheiya irrigated with iron agent; type: in vivo; conditions: irrigation once a week, after 30 days of cultivation, in comparison with the other plants (no iron agent, iron citrate)
Procedure: (§1) An aqueous solution of sodium ferrous citrate to be irrigated was prepared by adding 150 g of citric acid to 850 ml of tap water to produce citric acid water, then adding thereto 25 g of reduced iron powder, followed by stirring, and then adding to the resultant mixture 150 g of sodium hydrogen carbonate, followed by stirring and mixing.
(§2) Plants not irrigated with an iron agent (left side of the figure), plants irrigated with an aqueous solution of iron citrate (center of the figure), and plants irrigated with an aqueous solution of sodium citrate (right side of the figure) as the iron supply preparation for growth of the present application were provided, and the plants were cultivated while performing irrigation on the plants at a rate of once a week, and the growth conditions after 30 days of cultivation are shown. Each of the aqueous solution of iron citrate and the aqueous solution of sodium ferrous citrate was diluted 10000 times so that the total iron content was 15000 ppm, and the Fe^2+ content was 3000 ppm for iron citrate and 12500 ppm for sodium ferrous citrate.

[2] = system: komatsuna (Japanese mustard spinach); experiment: Use Example 2: growth of komatsuna irrigated with iron agent; type: in vivo; conditions: irrigation once a week, after 23 days of cultivation, in comparison with the other plants
Procedure: as §1
as §2, with “after 23” for “after 30”

[3] = system: okra; experiment: Use Example 3: growth of okra irrigated with iron agent; type: in vivo; conditions: irrigation once a week, after 19 days of cultivation, in comparison with the other plants
Procedure: as §1
as §2, with “after 19” for “after 30”

[4] = system: red leaf lettuce; experiment: Use Example 4: growth of red leaf lettuce irrigated with iron agent; type: in vivo; conditions: irrigation once a week, after 19 days of cultivation, in comparison with the other plants
Procedure: as §1
as §2, with “after 19” for “after 30”

[5] = system: parsley; experiment: Use Example 5: growth of parsley irrigated with iron agent; type: in vivo; conditions: irrigation once a week, after 19 days of cultivation, in comparison with the other plants
Procedure: as §1
as §2, with “after 19” for “after 30”

[6] = system: Italian parsley; experiment: Use Example 6: growth of Italian parsley irrigated with iron agent; type: in vivo; conditions: irrigation once a week, after 19 days of cultivation, in comparison with the other plants
Procedure: as §1
as §2, with “after 19” for “after 30”

[7] = system: plants; experiment: Consideration of Use Examples 1 to 6: plant weight index versus no iron agent; type: in vivo; conditions: no irrigation with an iron agent = 100, based on Use Examples 1 to 6
Procedure: as §1
The following consideration is made based on the results of Use Examples 1 to 6.
When the index in the case of no irrigation with an iron agent is 100, with respect to the plant's aboveground weight, it is 116 in the case of the irrigation with the aqueous solution of iron citrate and 209 in the case of the irrigation with the aqueous solution of sodium ferrous citrate, and with respect to the plant's root weight, it is 134 in the case of the irrigation with the aqueous solution of iron citrate and 464 in the case of the irrigation with the aqueous solution of sodium ferrous citrate.

[8] = Change of Fe2+ ion concentration of the aqueous solution in the production process; type: physicochemical; conditions: iron mixed with the citrate solution while stirring, FIGS. 1 to 4
Procedure: The aqueous solution of iron citrate is prepared by any one of the following methods: a method in which citric acid, solid iron and water are stirred and mixed together; a method in which solid iron is added to citric acid having been dissolved in water, followed by stirring and mixing; and a method in which solid iron and citric acid powder are added to a required amount of citric acid having been dissolved in water, followed by stirring and mixing while, if necessary, heating. To the thus obtained aqueous solution of iron citrate is mixed sodium hydrogen carbonate while, if necessary, heating, thereby producing an aqueous solution of sodium ferrous citrate. By the addition of sodium hydrogen carbonate, the aqueous solution of sodium ferrous citrate has been alkalized to have a pH value of from 5 to 8.
FIGS. 2 to 4 respectively show the change of the Fe^2+ ion concentration of aqueous iron agent solutions 1 to 3 for growth, each of which is produced by the above-mentioned method. […] Therefore, it is judged that the aqueous iron citrate solution is not suitable as an iron agent for growth.
In the cases of aqueous sodium ferrous citrate solutions 1 to 3 shown in FIGS. 2 to 4, the Fe^2+ ion concentration is confirmed to increase, differing from the case of the aqueous iron citrate solution shown in FIG. 1. […]

| Substance | rooting [1] | weight of the aboveground part [1] | rooting [2] | weight of the aboveground part [2] | rooting [3] | weight of the aboveground part [3] | rooting [4] | weight of the aboveground part [4] | rooting [5] | weight of the aboveground part [5] | rooting [6] | weight of the aboveground part [6] | index of the plant's aboveground weight [7] | index of the plant's root weight [7] | change of the Fe^2+ ion concentration of the aqueous solution [8] |
| --- | --- | --- | --- | --- | --- | --- | --- | --- | --- | --- | --- | --- | --- | --- | --- |
| sodium ferrous citrate | improvement | increase | improvement | increase | improvement | increase | improvement | increase | improvement | increase | improvement | increase | 209 | 464 | – |
| iron citrate [reference compound] | – | – | – | – | – | – | – | – | – | – | – | – | 116 | 134 | not confirmed to increase |
